One assay concerns Akt. The assay is described as follows: FRET biosensor AktAR, Akt activity in NIH3T3 cells. The following applies: 10 μM, 1 h. In kind it is cell-based, murine. As to the method:
(§1) In order to determine whether solenopsin A and analogs have similar modes of action to ceramide, a series of fluorescent biosensors were employed for the PI3K/Akt pathway. […] No significant inhibition could be seen for any of the other solenopsin analogs (FIG. 4).
(§2) PARE was generated by sandwiching full-length PDK1 between a fluorescent protein pair (FRET pair), ECFP and citrine, and a motif generated from the Lyn-kinase gene was added to the 5′-end to target the construct to raft microdomains. AktAR was generated by a fluorescent protein pair, cerulean and cpVE172, sandwiching a forkhead-associated binding domain (FHA1) and an Akt substrate domain (FOXO). PH(Akt)-citrine was constructed by attaching the yellow fluorescent protein (citrine) to the C-terminus of PH domain of Akt1, therefore the translocation of Akt PH domain can be detected by increase of yellow fluorescence at plasma membrane.
(§3) NIH3T3 cells were plated and grown to 40% confluency. […] The data was analyzed with Metafluor 6.2 software (Universal Imaging, Downingtown, Pa.). Cell regions were selected and fluorescence images were background-corrected by deducting the background (regions with no cells) from the emission intensities of CFP or YFP. […] For analysis of PH (Akt) domain translocation (PH(Akt)-citrine), the ratio of intensities of citrine at cell membrane and cytosol were calculated after background correction. […]

In another assay the test system is UM-SCC1A cells. Description: Oxygen consumption rate (Seahorse) in UM-SCC1A cells. Format: cell-based, human. As to conditions: 10 μM, 24 h. The method, then:
UM-SCC1A cells were plated 15,000/well and treated for 24 h with 10 μM of (+)-solenopsin A ((+) Sol. A), (−)-solenopsin A ((−) Sol. A), and solenopsin analogs S11-S15. Oxygen consumption rate (OCR) was measured as pmoles O2/minute using a Seahorse Biosciences instrument. Data shown are an average of three experiments±s.d.
At least not in Braf mutated cell lines, such as A375 and A2058. One possibility is that solenopsin, like ceramide, may also localize to mitochondria, and cause mitochondrial induced cell death. Cellular oxygen consumption rate can be indicative of mitochondrial function. Therefore, to investigate if solenopsin A and analogs do alter mitochondrial function, UM-SCC1A (human head and neck SCC) cells were then treated with 10 μM compound or the equivalent amount of DMSO and incubated for 24 hours. A SeaHorse Bioscience instrument was used to measure the oxygen consumption rate (OCR). […] Mitophagy can be one reason for decreased OCR, but further assays are needed to confirm the cause for the observed differences.
UM-SCC1A cells were plated 15,000 per well in 200 μl DMEM supplemented with 10% FBS and 1% penicillin-streptomycin in each well of a 96-well Seahorse plate and incubated overnight at 37° C. with 5% CO2. Cells were then treated with 10 μM compound or the equivalent amount of DMSO and incubated for 24 hours. OCR was measured as pmoles O2/minute using the Seahorse Biociences instrument per manufacturer's instructions. Protein amounts in each well were then quantified using the Thermo Scientific Pierce Protein Assay, per manufacturer's instructions.

In another assay the test system is A375 cells. The assay is described as follows: Superoxide (ROS) by DHE fluorescence, A375 cells. Format: cell-based, human. As to conditions: 10 μM, 24 h. As to the method:
Cells were treated for 24 h with 10 μM of (+)-solenopsin A ((+) Sol. A), (−)-solenopsin A ((−) Sol. A), and solenopsin analogs S11-S15. Cells were trypsined and incubated for 10 min in 10 μM dihydroethedium (DHE), followed by analysis with a FACScan flow cytometer. Data shown are an average of three experiments±s.d.
A375 or SVR cells were plated in 6 cm dishes. After cells had adhered to the plates, they were treated for 24 h with 10 μM DMSO solutions of (+)-solenopsin A, (−)-solenopsin A, or analogs (S11-S15) at which time the media was aspirated. Cells were washed with 2 mL PBS then treated with 0.05% trypsin/0.53 mM EDTA (Fisher) for 3 min at RT. Cells were collected and then pelleted at 600 g for 2 min. The supernatant was aspirated and the cells were suspended in 10 uM dihydroethidium (DHE) (Life Technologies) and incubated for 10 min in the dark at RT while shaking Following this incubation, cells were kept until counting on a Becton Dickinson FACScan flow cytometer. 10,000 cells were counted and analyzed by FlowJo 7.6.4. Mean values of DHE fluorescence intensity were compared.

Assay [1] deals with A375 (human melanoma) cells. Description: Proliferation study, A375 cells (Coulter Counter). Format: cell-based. The following applies: 10 μM, 24 h, cell count vs DMSO. As to the method: 50,000 cells/well were plated and treated for 24 h with each compound. The first DMSO bar in each chart serves as control for (+)-solenopsin A, (−)-solenopsin A, and ceramide C2. The second DMSO bar is the control for S11-S15.
(§4) Different analogs of solenopsin were synthesized (FIG. 1) in order to explore their structure-activity relationships. The aliphatic side chains of S14 and S13 are 4 and 8 carbons longer compared to solenopsin, respectively. S11 has an 8-carbon longer side chain, as well as an extra methyl group in the 4-position of the piperidine ring. S15 has an 11-carbon side chain similar to solenopsin, but the first carbon in the side chain is hydroxylated. Also, S15 lacks the methyl group in the 2-position of the piperidine ring. All the analogs together with (−)- and (+)-solenosin A, and the isomeric mixture of the two cis-isomers of solenopsin (S12) were tested, at 10 μM, on two different human melanoma cell lines (A375 and A2058) and one murine angiosarcoma cell line (SVR) (FIG. 2). The A375 and A2058 melanoma cell lines express mutant Braf and the SVR murine angiosarcoma cell line expresses mutant Hras. One important difference between the two human melanoma cell lines is the A2058 is PTEN null, whereas A375 is not.
(§5) A375 (human melanoma), A2058 (human melanoma), or SVR (murine angiosarcoma) cells were plated at a concentration of 50,000 cells/well. The cells were treated with 10 μM of (−)-solenopsin A, (+)-solenopsin A, or analogs (S11-S15) for 24 hours, at which point cells were counted with a Coulter Counter.

Assay [2] concerns A2058 (human melanoma) cells. The assay is described as follows: Proliferation study, A2058 cells (Coulter Counter). The following applies: 10 μM, 24 h, cell count vs DMSO. In kind it is cell-based.
From the text: as §4, §5

The next assay deals with T1, PH domain of Akt1 (Homo sapiens, UniProt P31749).
T1 construct: attaching the yellow fluorescent protein (citrine) to the C-terminus of PH domain of Akt1; expressed in transfected cells; host or cells: NIH3T3
T1 sequence (P31749 5-108 limits assumed): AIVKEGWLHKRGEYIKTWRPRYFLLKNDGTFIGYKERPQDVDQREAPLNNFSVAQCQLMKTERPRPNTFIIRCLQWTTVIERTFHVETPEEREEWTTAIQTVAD
Description: PH(Akt)-citrine, Akt translocation in NIH3T3 cells. In kind it is cell-based, murine. The following applies: 10 μM, 1 h. As to the method:
as §1, §2, §3

The subject of assay [3] is SVR (murine angiosarcoma) cells. Description: Proliferation study, SVR cells (Coulter Counter). Format: cell-based. As to conditions: 10 μM, 24 h, cell count vs DMSO.
From the text: as §4, §5

Another assay has as its target T2, PDK1 (Homo sapiens, UniProt O15530).
T2 construct: PARE was generated by sandwiching full-length PDK1 between a fluorescent protein pair (FRET pair), ECFP and citrine; expressed in transfected cells; host or cells: NIH3T3
T2 sequence (O15530 1-556): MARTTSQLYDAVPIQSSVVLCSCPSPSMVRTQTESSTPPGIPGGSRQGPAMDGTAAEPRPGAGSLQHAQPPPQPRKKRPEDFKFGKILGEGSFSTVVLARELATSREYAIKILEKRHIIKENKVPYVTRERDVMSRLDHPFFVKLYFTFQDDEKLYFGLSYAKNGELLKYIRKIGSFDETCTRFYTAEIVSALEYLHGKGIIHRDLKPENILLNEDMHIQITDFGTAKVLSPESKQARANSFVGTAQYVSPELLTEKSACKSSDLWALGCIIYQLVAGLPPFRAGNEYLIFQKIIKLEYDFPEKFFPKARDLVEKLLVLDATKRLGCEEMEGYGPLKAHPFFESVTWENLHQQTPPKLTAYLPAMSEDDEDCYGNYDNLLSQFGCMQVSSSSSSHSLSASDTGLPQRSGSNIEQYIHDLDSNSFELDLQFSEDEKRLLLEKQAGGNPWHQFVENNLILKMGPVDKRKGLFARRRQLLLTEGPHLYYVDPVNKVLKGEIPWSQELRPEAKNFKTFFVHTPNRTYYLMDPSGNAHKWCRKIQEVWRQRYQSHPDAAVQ
The assay is described as follows: FRET biosensor Lyn-PARE, PDK1 activation in membrane rafts of NIH3T3 cells. The following applies: 10 μM, 1 h. Format: cell-based, murine. As to the method: as §1, §2, §3

Regarding `CCCCCCCCCCCCCCCCCCCC1CCCC(C)N1` (centres unmarked) [Compound S13, 2-Methyl-6-nonadecylpiperidine], the “inhibition of Akt activity (AktAR)” value in the assay with Akt is “some inhibition”. The “oxygen consumption rate (OCR) compared to DMSO control” value with UM-SCC1A cells is reported as “slightly reduced OCR”. Further, in the assay on A375 cells, the “effect on superoxide levels (DHE fluorescence)” value is on record as “no effect on superoxide levels”. Besides, the antiproliferative effect entry in assay [1], in assay [2] and in assay [3] was “lower antiproliferative effect than S12” throughout. Further, on PH domain of Akt1, the “inhibition of Akt translocation (PH(Akt)-citrine)” value is listed as “some inhibition”. At PDK1, the “inhibition of PDK1 activation (Lyn-PARE)” value was “some inhibition”.

Source of the values: patent US9592226B2, “Solenopsin and derivatives, therapeutic compositions; and methods related thereto” (priority 2013, dated 2017).
